Earlier results in patent publication US20110160253A1, “DEUTERATED TIZANIDINE” (priority 2008, published 2011).

What was measured:
[1] = patients treated with tizanidine; appears to be dose related
[2] = primary cytochrome P450 isoenzyme involved being CYP1A2

In the case of `Clc1ccc2nsnc2c1NC1=NCCN1` [Tizanidine, 5-chloro-4-(2-imidazolin-2-ylamino)-2,1,3-benzothiodiazole], the “patients who report sedation” value [1] is given as 48% and the “administered dose that is metabolized” value [2] is given as “Approximately 95%”.
